Data published in ChEMBL document CHEMBL2057118, “Synthesis and biological evaluation of novel 2,4,6-triazine derivatives as antimicrobial agents” (2012).
≈ marks a conversion by molar mass, not a printed value.

How the values were obtained:
Assay type in all cases: functional
Pseudomonas aeruginosa = assay: Antimicrobial activity against Pseudomonas aeruginosa MTCC 1688 after 24 hrs by agar well diffusion method; settings: for MIC: Pseudomonas aeruginosa, MTCC 1688, 24 h
Aspergillus niger = assay: Antifungal activity against Aspergillus niger MTCC 1781 after 2 to 3 days by agar well diffusion method
Staphylococcus aureus = assay: Antimicrobial activity against Staphylococcus aureus MTCC 96 after 24 hrs by agar well diffusion method; settings: for MIC: Staphylococcus aureus, MTCC 96, 24 h
Escherichia coli = assay: Antimicrobial activity against Escherichia coli MTCC 1650 after 24 hrs by agar well diffusion method; settings: for MIC: Escherichia coli, MTCC 1650, 24 h
Candida albicans = assay: Antifungal activity against Candida albicans MTCC 227 after 2 to 3 days by agar well diffusion method
Bacillus subtilis = assay: Antimicrobial activity against Bacillus subtilis MTCC 441 after 24 hrs by agar well diffusion method; settings: for MIC: Bacillus subtilis, MTCC 441, 24 h

Compound | inhibition zone (IZ) (Pseudomonas aeruginosa) [mm] | MIC (Pseudomonas aeruginosa) [µg/mL] | inhibition zone (IZ) (Aspergillus niger) [mm] | MIC (Aspergillus niger; Aspergillus niger, MTCC 1781) [µg/mL] | inhibition zone (IZ) (Staphylococcus aureus) [mm] | MIC (Staphylococcus aureus) [µg/mL] | inhibition zone (IZ) (Escherichia coli) [mm] | MIC (Escherichia coli) [µg/mL] | inhibition zone (IZ) (Candida albicans) [mm] | MIC (Candida albicans; Candida albicans, MTCC 227) [µg/mL] | inhibition zone (IZ) (Bacillus subtilis) [mm] | MIC (Bacillus subtilis) [µg/mL] | MIC (Aspergillus niger) [µg/mL] | MIC (Candida albicans) [µg/mL]
Cl.N#Cc1ccc(Nc2nc(Nc3cc[nH]n3)nc(Nc3cc[nH]n3)n2)cn1 | 14 | 12.5 | 14 | 12.5 | 12 | 12.5 | 12 | 6.25 | 14 | 12.5 | 10 | 6.25 | – | –
CC(=O)N1CCN(c2nc(Nc3ccc(C#N)nc3)nc(N3CCN(C(C)=O)CC3)n2)CC1.Cl | 10 | 50 | 14 | 100 | 12 | 50 | 12 | 50 | 14 | 25 | 12 | 50 | – | –
Cl.N#Cc1ccc(Nc2nc(Nc3ccc(F)cc3)nc(Nc3ccc(F)cc3)n2)cn1 | 12 | 50 | 12 | 25 | 12 | 25 | 14 | 25 | 12 | 25 | 10 | 25 | – | –
Cl.N#Cc1ccc(Nc2nc(N3CCNCC3)nc(N3CCNCC3)n2)cn1 | 10 | 50 | 14 | 100 | 12 | 50 | 12 | 50 | 14 | 25 | 12 | 50 | – | –
CN(C)CCNc1nc(NCCN(C)C)nc(Nc2ccc(C#N)nc2)n1.Cl | 12 | 12.5 | 12 | 25 | 12 | 12.5 | 14 | 12.5 | 14 | 25 | 12 | 25 | – | –
Cl.N#Cc1ccc(Nc2nc(N3CCN(c4ccccc4)CC3)nc(N3CCN(c4ccccc4)CC3)n2)cn1 | 10 | 6.25 | 14 | 25 | 12 | 6.25 | 12 | 6.25 | 14 | 25 | 10 | 6.25 | – | –
Cc1ccc(Nc2nc(Nc3ccc(C)cc3)nc(Nc3ccc(C#N)nc3)n2)cc1.Cl | 10 | 25 | 14 | 100 | 12 | 12.5 | 12 | 12.5 | 14 | 25 | 12 | 25 | – | –
Cl.N#Cc1ccc(Nc2nc(NC3CCCCC3)nc(NC3CCCCC3)n2)cn1 | 10 | 6.25 | 14 | 12.5 | 12 | 6.25 | 12 | 6.25 | 14 | 12.5 | 12 | 6.25 | – | –
Cl.N#Cc1ccc(Nc2nc(NC3CCCC3)nc(NC3CCCC3)n2)cn1 | 12 | 12.5 | 12 | 25 | 12 | 6.25 | 10 | 6.25 | 12 | 25 | 12 | 6.25 | – | –
Cl.N#Cc1ccc(Nc2nc(N3CCCC3)nc(N3CCCC3)n2)cn1 | 12 | 100 | 14 | 50 | 12 | 100 | 12 | 50 | 12 | 50 | 12 | 100 | – | –
Cl.N#Cc1ccc(Nc2nc(N3CCN(C(=O)c4ccccc4)CC3)nc(N3CCN(C(=O)c4ccccc4)CC3)n2)cn1 | 14 | 25 | 12 | 50 | 12 | 12.5 | 12 | 25 | 14 | 50 | 10 | 12.5 | – | –
Cl.N#Cc1ccc(Nc2nc(N3CCOCC3)nc(N3CCOCC3)n2)cn1 | 10 | 50 | 14 | 100 | 12 | 50 | 12 | 50 | 14 | 50 | 12 | 50 | – | –
Cl.N#Cc1ccc(Nc2nc(NCc3ccco3)nc(NCc3ccco3)n2)cn1 | 12 | 6.25 | 12 | 12.5 | 12 | 6.25 | 14 | 6.25 | 12 | 12.5 | 10 | 6.25 | – | –
COCCNc1nc(NCCOC)nc(Nc2ccc(C#N)nc2)n1.Cl | 12 | 6.25 | 14 | 12.5 | 12 | 12.5 | 12 | 6.25 | 12 | 12.5 | 12 | 6.25 | – | –
COc1cccc(Nc2nc(Nc3ccc(C#N)nc3)nc(Nc3cccc(OC)c3)n2)c1.Cl | 12 | 12.5 | 12 | 25 | 12 | 6.25 | 14 | 6.25 | 12 | 25 | 10 | 12.5 | – | –
Cl.N#Cc1ccc(Nc2nc(N3CCCCC3)nc(N3CCCCC3)n2)cn1 | 12 | 25 | 14 | 25 | 12 | 50 | 14 | 25 | 10 | 50 | 10 | 50 | – | –
NYSTATIN | – | – | 20 | – | – | – | – | – | 20 | – | – | – | 6.25 | 6.25
CN[C@@H]1[C@H](O[C@H]2[C@H](O[C@H]3[C@H](O)[C@@H](O)[C@H](N=C(N)N)[C@@H](O)[C@@H]3N=C(N)N)O[C@@H](C)[C@]2(O)C=O)O[C@@H](CO)[C@H](O)[C@H]1O [STREPTOMYCIN] | 24 | 6.25 (≈ 10.7 µM) | – | – | 20 | 6.25 (≈ 10.7 µM) | 22 | 6.25 (≈ 10.7 µM) | – | – | 22 | 6.25 (≈ 10.7 µM) | – | –
CN1CCN(c2nc(Nc3ccc(C#N)nc3)nc(N3CCN(C)CC3)n2)CC1.Cl | 10 | 12.5 | 12 | 50 | 12 | 12.5 | 12 | 12.5 | 10 | 50 | 12 | 12.5 | – | –
Cl.N#Cc1ccc(Nc2nc(NCCN3CCOCC3)nc(NCCN3CCOCC3)n2)cn1 | 12 | 25 | 14 | 50 | 12 | 50 | 14 | 25 | 12 | 25 | 10 | 25 | – | –
